The text below walks through data of paper PMC10115881, “Disrupting the α-synuclein-ESCRT interaction with a peptide inhibitor mitigates neurodegeneration in preclinical models of Parkinson’s disease” (Nature Communications, 2023).

Assay [1] concerns endolysosomal flux in HEK293 cells. The assay is described as follows: Endolysosomal flux assay, flow cytometry, HEK293 cells. The assay is classed as cell-based, human. The settings on record: A53T a-syn. The protocol:
Flux via the endolysosomal pathway was measured with the Lysosome Intracellular Activity Assay Kit which was purchased from Abcam (ab234622) and used according to the manufacturer’s instructions. The kit provides a proprietary lysosome-specific self-quenched substrate which has low background fluorescence, high signal-to-background ratio, and is pH insensitive. In the assay, the substrate is taken up by cells and acts as endocytic cargo which is degraded within an endolysosomal vesicle. Following degradation, the fluorescence signal recovered from the substrate is proportional to the intracellular lysosomal activity. The activity can be measured by fluorescence microscopy or FACS. The assay was performed with HEK293T cells or SNCA triplication fibroblasts (obtained from NINDS Human Genetics Resource Center DNA and Cell Line Repository; NINDS Repository sample number ND27760). Cells were maintained in DMEM supplemented with 10% FBS and 1% pen/strep/glutamine. Cell medium was replaced with fresh medium containing DMSO, Leupeptin, or Bafilomycin A1 and incubated for 1 h at 37 °C with 5% CO2. Self-quenched substrate was added into each condition and incubated for 1 h (HEK293T cells) or overnight (SNCA triplication fibroblasts) at 37 °C with 5% CO2. […] For HEK293T cells, cells were resuspended in PBS containing DMSO or Leupeptin and analyzed by FACS. […]

In assay [2] the test system is a-syn-CHMP2B interaction. In words: Proximity ligation assay, endogenous a-syn-CHMP2B in rat cortical neurons. It is filed as cell-based. The protocol:
PLA was performed on fixed primary neurons using Duolink® in situ red starter kit mouse/rabbit (Sigma–Aldrich) according to the manufacturer’s instructions. Fixed neurons were permeabilized with 0.1% Triton-X-100 in PBS for 10 min, washed three times with PBS, and incubated with blocking solution for 30 min at 37 °C in a humidity chamber. Primary antibodies (mouse anti-a-syn (clone 42) (BD Biosciences, catalog #610787, 1:500) and rabbit anti-CHMP2B (Abcam, catalog #ab33174, 1:50)) were diluted using antibody diluent. After blocking, neurons were incubated with primary antibodies at room temperature for 1 h in a humidity chamber. Coverslips were washed with wash buffer A two times for 5 min and then incubated with PLA probe solution (anti-mouse minus and anti-rabbit plus) for 1 h at 37 °C in a humidity chamber. Coverslips were washed with wash buffer A two times for 5 min. For the ligation step, 5× ligation buffer was diluted 1:5 in high purity water and ligase was added to the 1× ligation buffer at 1:40 dilution. After the wash, coverslips were incubated in the diluted ligase for 30 min at 37 °C in a humidity chamber. Post-ligation, coverslips were washed with wash buffer A two times for 5 min. For the amplification step, 5× amplification buffer was diluted 1:5 in high purity water and polymerase was added to the 1× amplification buffer at 1:80 dilution. […]

Assay [3] relates to a-syn in iPSC-derived dopaminergic neurons. In words: a-syn fluorescence in iPSC-derived dopaminergic neurons. To be noted: A53T a-syn iPSC-derived dopaminergic neurons. It is filed as cell-based, human. The protocol: A53T a-syn iCell Dopa neurons (catalog #R1109) and isogenic control iCell Dopa neurons (catalog #R1088) were purchased from Fujifilm Cellular Dynamics (Madison, WI, USA) and cultured as per the manufacturer’s instructions. Briefly, cells were plated in complete maintenance medium provided by the manufacturer on poly-L-ornithine/laminin coated μ plates (ibidi). Cells recovered from thawing for 24 h and then were transduced with AAV-Scramble1.3-RFP or AAV-PDpep1.3-RFP at MOI of 3000 for 48 h at which time media was completely changed. Cells were fixed using 4% PFA at 7 days post-plating.
Confocal images of immunofluorescent staining were acquired with a Zeiss LSM880 confocal microscope equipped with 405, 488, 555, and 639 nm laser lines. All images were taken within the linear range at constant gain and pinhole settings at optimal resolution settings determined by the software. […]
Confocal images of primary cortical neurons, iPSC-derived dopaminergic neurons, and LAMP1 staining within the SN were processed using Imaris software (Oxford instruments). […] Mean pixel intensity per GFP^+ cell (for experiments using GFP-tagged peptides) or RFP^+ cell (for experiments using RFP-tagged peptides) was calculated for a-syn or LAMP1 signal using the software’s surfaces module. […]

Take DEEIERQLKALG [PDpep1.3]: the “Effect on endolysosomal flux” value in assay [1] is on record as “returned the fluorescent signal to baseline”. Besides, in assay [2], the “Effect on a-syn-CHMP2B interaction, PLA” value was “reduction of the interaction between endogenous WT a-syn and CHMP2B”. In addition, the “Effect on a-syn levels, iPSC neurons” value in assay [3] is reported as “returned levels of a-syn, including oligomeric a-syn, as well as LAMP1 levels to those of isogenic controls”.
